Series [1] has as its system green peach aphid (Myzus persicae). Briefly: Myzus test (spray treatment). It is filed as in vivo. Particulars: 100 g/ha, spray treatment of Chinese cabbage discs. As for the experimental part:
Myzus Test—(Spray Treatment) Solvents: 78 parts by weight of acetone 1.5 parts by weight of dimethylformamide Emulsifier: 0.5 part by weight of alkylaryl polyglycol ether To produce a suitable preparation of active compound, 1 part by weight of active compound is mixed with the stated amount of solvents and the stated amount of emulsifier, and the concentrate is diluted with emulsifier-containing water to the desired concentration. Discs of Chinese cabbage (Brassica pekinensis) which are infested by all stages of the green peach aphid (Myzus persicae) are sprayed with a preparation of active compound of the desired concentration. After the desired period of time, the effect in % is determined. 100% means that all aphids have been killed; 0% means that none of the aphids have been killed.

The subject of the next series is Echinoclora. The series can be described thus: Herbicidal post-emergence action, greenhouse. It is filed as in vivo. The conditions noted are these: 1000 g a.i./ha, rated visually after 2 weeks, 100% = plants have died. As for the experimental part: (§1) 2. Herbicidal Post-emergence Action Seeds of monocotyledonous and dicotyledonous weed and crop plants are placed into sandy loam, covered with soil and cultivated in a greenhouse under good growth conditions. About 2 weeks after sowing, the test plants are treated at the one-leaf stage. The test compounds, formulated as emulsion concentrates (EC), are, in various dosages with a water application rate of 800 l/ha (converted), with wetting agents added, sprayed onto the green parts of the plants. After the test plants have, been kept in the greenhouse under optimum growth conditions for 2 weeks, the effect of the preparations is rated visually in comparison to untreated controls (herbicidal effect in percent (%): 100% effect=the plants have died, 0% effect=like control plants).

Series [2] concerns Lolium. Briefly: Herbicidal post-emergence action, greenhouse. The series is classed as in vivo. The conditions noted are these: 1000 g a.i./ha, rated visually after 2 weeks, 100% = plants have died. The protocol:
as §1

Series [3] concerns Setaria. Briefly: Herbicidal post-emergence action, greenhouse. The conditions noted are these: 1000 g a.i./ha, rated visually after 2 weeks, 100% = plants have died. It is filed as in vivo. As for the experimental part:
as §1

The test system of series [4] is Lolium. Briefly: Herbicidal pre-emergence action, greenhouse. The conditions noted are these: 1000 g a.i./ha, visual assessment after 2 to 3 weeks, 100% = plants have died. The series is classed as in vivo. The text has this:
(§2) 1. Herbicidal Pre-emergence Action Seeds of monocotyledonous and dicotyledonous weed and crop plants are placed into sandy loam and covered with soil. The test compounds, formulated in the form of emulsion concentrates (EC), are, in various dosages with a water application rate of 800 l/ha (converted), with wetting agent added, applied to the surface of the covering soil. After the treatment, the pots are placed in a greenhouse and kept under good growth conditions for the test plants. The visual assessment of the emergence damage on the test plants is carried out after a trial period of 2 to 3 weeks by comparison with untreated controls (herbicidal effect in percent (%): 100% effect=the plants have died, 0% effect=like control plants).

Series [5] concerns Setaria. The series can be described thus: Herbicidal pre-emergence action, greenhouse. It is filed as in vivo. The conditions noted are these: 1000 g a.i./ha, visual assessment after 2 to 3 weeks, 100% = plants have died.
Description: as §2

A word on the melting point: it is the temperature, or range, at which the solid turns liquid. The compound `Cc1scnc1-c1c(O)n2n(c1=O)CCCC2` (single isomer, unassigned) [Example I-3-b-3] had a melting point of 182 °C.
In the case of `CCCc1cc(-c2ccc(Cl)cc2)nn1-c1c(O)n2n(c1=O)CCCC2` [Example I-3-a-1], the “Kill rate in % after 5 d” value in series [1] came to 100%. Besides, the “herbicidal effect in percent, Echinoclora” value with Echinoclora is given as 100%. Moreover, the “herbicidal effect in percent, Lolium” value was found to be 90% in the series with Lolium [2] and 100% in the series with Lolium [4]. Moreover, the “herbicidal effect in percent, Setaria” value in the series with Setaria [3] and with Setaria [5] was 100% throughout.
With `Cc1scnc1-c1c(O)n2n(c1=O)CCCC2` (single isomer, unassigned) [Example I-3-b-2], the melting point came out at 86 °C.

For the origin of these results see US7420062B2, “Hetaryl-substituted pyrazolidindione derivatives with pesticidal characteristics” (Bayer CropScience, AG, priority 2003, dated 2008).
